A short description of data set [1]: Determination of Thermodynamic Solubility. Particulars: for solubility: thermodynamic from solid. Type of data set: physicochemical. How it is done: Aqueous pH 7.4 and PEG 300 samples were tested at 25° C. Excess amount of the bulk drug was weighed out and mixed with an aliquot of target media in a clear glass vial (n=3/solvent). The vial was capped, wrapped with aluminum foil, and tumbled in a 25° C. water bath. When equilibration was completed, the samples were removed from the water bath and the final pH was measured, if applicable. The samples were centrifuged at 25° C. at 3000 rpm for 20 minutes. The supernatant was filtered through 4 mm 0.45 μm PTFE syringe filters. The filtrate was assayed after appropriate dilution (no dilution required for aqueous samples). The concentration of the sample was calculated against a calibration curve for the compound.
Solubility in pH 7.4 buffer was carried out as described above, except samples were not centrifuged before filtration. All other experimental steps were the same. PEG 300 and PEG 400 solubility were done at ambient temperature. Excess amount of the bulk drug was weighed out and mixed with an aliquot of target media in a clear glass vial with a small stir bar (n=3). The vials were placed on the stirrer at ˜500 rpm and allowed to equilibrate over the weekend. Samples were filtered through 13 mm 0.45 μm GHP syringe filters. The filtrate was assayed after appropriate dilutions, and concentrations determined against a calibration curve for the compound.

Data set [2] in a line: CLND Solubility Assay. Type of data set: physicochemical. Particulars: aqueous buffer, kinetic from dmso stock; 35 μM compound in 10 mM phosphate buffer, pH 7.2. How it is done: Chemiluminescent nitrogen detection (CLND) method oxidized the analyte to nitrogen oxide that reacted with ozone to provide a photon of light and was a measure of how much compound was in solution. Compounds must contain nitrogens for this experiment. Nitrogen impurities present in the compound will cause falsely high results. • 1. Compound concentration tested was 35 μM in 10 mM phosphate buffer, 7.2. • 2. Compounds were tested in triplicate. • 3. Compound concentration was determined by comparing readings to a caffeine standard curve. One standard curve was run before and after every test plate. For 3 test plates, four standard curves were generated.
Experimental Procedure: • 1. 5 μl of 5 mM test compound in DMSO was added to three adjacent wells in a plate. • 2. 695 μl of 10 mM phosphate buffer, pH 7.2, was added to each well. • 3. The plates were sealed. • 4. The plates were allowed to sonicate for 1 hour. • 5. The plates were shook on a plate orbital shaker for up to 6 hours. • 6. The plates were spinned at 5000 rpm (6000×G) overnight. • 7. Standard curves were prepared by adding 5 μl of stock solutions to wells according to Caffeine Concentrations for Standard Curve table below. • 8. Buffer (10 mM phosphate buffer, pH 7.2, 695 μl) was added. • 9. The plates were sealed. • 10. The plates were loaded onto a TOC/CLND. • 11. The results were analyzed after the run was completed.
The solubility was determined by comparing the reading generated by analysis of the sample to the standard curve. The value was then divided by the number of nitrogens contained in the compound. Corrections for impurities during the synthesis were included in the number of nitrogens. The resulting value was the reported solubility.

The target in data set [3] is T1, CYP3A4 (Homo sapiens, UniProt P08684).
T1 construct: The incubations consisted of human liver microsomal protein at 0.4 mg/ml; from tissue; host or cells: human liver microsomes
T1 sequence (P08684 whole entry): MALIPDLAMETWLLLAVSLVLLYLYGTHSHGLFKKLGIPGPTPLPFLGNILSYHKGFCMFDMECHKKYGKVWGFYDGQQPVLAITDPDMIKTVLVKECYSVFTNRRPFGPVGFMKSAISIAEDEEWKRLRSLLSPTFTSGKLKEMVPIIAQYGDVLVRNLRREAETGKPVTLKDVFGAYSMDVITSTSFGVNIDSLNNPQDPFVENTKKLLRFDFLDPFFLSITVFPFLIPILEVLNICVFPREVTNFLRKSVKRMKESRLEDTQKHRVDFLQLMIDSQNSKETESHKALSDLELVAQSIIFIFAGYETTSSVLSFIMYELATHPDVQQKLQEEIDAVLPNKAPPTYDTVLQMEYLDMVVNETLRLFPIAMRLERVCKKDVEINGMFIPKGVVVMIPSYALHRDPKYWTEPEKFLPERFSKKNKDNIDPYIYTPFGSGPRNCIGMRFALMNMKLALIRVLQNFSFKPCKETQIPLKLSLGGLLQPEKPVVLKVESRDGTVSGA
As to the kind of experiment: CYP 3A4 Assay (Luc, luminescence, human liver microsomes). In kind it is in vitro ADME. Conditions: human liver microsomes 0.4 mg/mL, substrate LUC-LIPA. How it is done: Each assay was preformed in ½ well plates. Test compounds were examined at six concentrations in DMSO that were serial diluted to: 2, 0.6, 0.2, 0.07, 0.02, and 0.007 mM (from left to right) and at 100×; 0.5 ul of these dilutions were added to two empty assay plates (resulting in final assay concentrations of 20, 6, 2, 0.7, 0.2, and 0.07 uM. The control and vehicle were added to the plate at 100× with the same dilution scheme.
The incubations consisted of human liver microsomal protein at 0.4 mg/ml in 100 mM KPO4 buffer, 125 uM NADPH and Regeneration mix in phosphate buffer at pH 7.4.
CYP3A4 requires a pre-incubation using the following recipe:
• CYP3A4—5 μM LUC-LIPA in 100 mM phosphate buffer pH 7.4 • Assay Procedure for CYP3A4: • 1. 40 uL of the Pre-incubation Mixture was added to all wells of the assay plates. • 2. Plates were pre-incubated for 10 minutes at 37° C., with shaking or rocking. (No pre-read is necessary for the luminescence assays CYP2C9 and CYP3A4). • 3. 10 μL of Substrate Solution was added to all wells of the assay plates. • 4. Plates were incubated for an additional 25 minutes at 37° C., with shaking or rocking. • 5. added 50 μl of stop/developer from respective kits, and incubated for 20 minutes to 2 hours with shaking at room temperature prior to reading. […]
(Liver microsomes are a subcellular fraction often used to study metabolism.)

Data set [4] has as its target T2, cKIT (Homo sapiens, UniProt P10721).
T2 construct: GST
As to the kind of experiment: HTRF in vitro kinase assay, cKIT. Type of data set: biochemical. Particulars: 1 mM ATP. How it is done: To determine the activity of the various kinases, a homogenous time-resolved fluorescence (HTRF) in vitro kinase assay was used. (Mathis, G., HTRF(R) Technology. J Biomol Screen, 1999. 4(6): p. 309-314; Alfred J. Kolb, Paul V. Kaplita, David J. Hayes, Young-Whan Park, Christine Pernell, John S. Major and Gerard Mathis, Drug Discovery Today, 1998, 3, 333-342.)
For example for KDR, cKIT, FLT1, CSF1R and FTL3, purified enzyme was mixed with 0.5 μM N-biotinylated substrate (Biotin-Ahx-[…]-amide (SEQ. ID. 1)), various concentrations of inhibitor in reaction buffer (50 mM HEPES, pH 7.1, 10 mM MgCl2, 2 mM MnCl2, 0.1% BSA and 1 mM DTT, 40 μL final volume), ATP (1 mM final conc.) in a black 384-well plate. After 60 minutes incubation at room temperature, the reaction was quenched by addition of a buffered EDTA solution (final approximate concentrations: 30 mM EDTA, 0.1% BSA, 0.1% Triton X-100 and 0.24M KF) and a solution of revelation agents (to give 0.084 ng/well streptavidin-XL-665 (Cis-Bio) and 6.5 ng/well antiphsophotyrosine mAb PT66-K Europium kryptate) was added to the reaction mixture. The quenched reaction was allowed to stand at room temperature for 3 hours and was then read in a time-resolved fluorescence detector (InVision, Perkin-Elmer) at 620 nm and 665 nm sequentially with excitation. The ratio between the signal of 620 nm and 665 nm was used in the calculation of the IC50.
On the technique in general: In TR-FRET formats the signal depends on donor and acceptor labels being close together.

From patent US20130023555A1, “KINASE INHIBITOR WITH IMPROVED SOLUBILITY PROFILE” (Abbott Laboratories, priority 2011, published 2013) come the findings set out here.

≈ marks a conversion by molar mass, not a printed value.

In general, solubility refers to how much of the substance goes into solution per volume. One may read the IC50 as the concentration that inhibits the measured activity by half. A low value points to greater potency.

T2 sequence (P10721 544-976 limits assumed): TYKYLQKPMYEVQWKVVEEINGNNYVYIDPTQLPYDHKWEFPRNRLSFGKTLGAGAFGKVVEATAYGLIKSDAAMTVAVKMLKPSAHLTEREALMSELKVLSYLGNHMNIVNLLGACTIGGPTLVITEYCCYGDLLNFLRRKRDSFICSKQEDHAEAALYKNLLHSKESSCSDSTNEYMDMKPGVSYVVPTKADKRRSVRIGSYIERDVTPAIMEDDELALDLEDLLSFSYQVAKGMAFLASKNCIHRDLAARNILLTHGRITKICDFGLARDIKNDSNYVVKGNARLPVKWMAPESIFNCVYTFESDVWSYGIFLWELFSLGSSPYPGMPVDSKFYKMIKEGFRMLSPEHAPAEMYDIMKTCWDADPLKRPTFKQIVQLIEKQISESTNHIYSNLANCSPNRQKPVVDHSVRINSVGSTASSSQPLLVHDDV

In the case of `CCN(CC)CCCNC(=O)c1cnc(N)c2c(-c3ccc(NC(=O)Nc4cccc(F)c4)cc3)csc12` [Example 1, 4-amino-N-[3-(diethylamino)propyl]-3-(4-{[(3-fluorophenyl)carbamoyl]amino}phenyl)thieno[3,2-c]pyridine-7-carboxamide], the solubility in data set [1] (PEG 300, 25 °C, organic solvent or mixture, PEG 300, Example 2 at 25° C., Example 1 at ambient temperature, read-out: Solubility (PEG300)) came out at 132 mg/mL (≈ 247 mM); in data set [1] (PEG 400, organic solvent or mixture, PEG 400, ambient temperature, read-out: Solubility PEG 400), 124 mg/mL (≈ 232 mM); in data set [1] (phosphate buffer, 25 °C, pH 7.4, aqueous buffer, 50 mM phosphate pH 7.4 buffer, 25° C., read-out: Solubility pH 7.4), 0.0171 mg/mL (≈ 0.032 mM); in data set [2], 70.8 µM (≈ 37.8 µg/mL). Further, the “Solubility (PEG300)” value in data set [1] (PEG 300, Example 2 at 25° C., Example 1 at ambient temperature) is listed as over 125 mg/mL. Moreover, the half-maximal inhibitory concentration (IC50) in data set [3] was over 20000 nM; in data set [4], 35 nM.
